In ChEMBL document CHEMBL3885861, “Open TG-GATES”:

Species: Rattus norvegicus
Experiment: Open TG-GATES - Regimen: Single
Type: toxicity, organism-based, Sprague-Dawley
Set-up: regimen Single, gender Male, age 6 weeks
Conditions: in vivo, po, route gavage; for APTT / Bas / Eos / Fbg / Hb / Ht / Lym / MCH / MCHC / MCV / Mono / Neu / PT / Plat / RBC / Ret / WBC: tissue Blood; for KIDNEY_L / KIDNEY_R / KIDNEY_TOTAL: tissue Kidney; for LIVER: tissue Liver; for A/G / ALP / ALT / AST / BUN / CRE / Ca / Cl / DBIL / GLC / IP / K / LDH / Na / PL / RALB / TBIL / TC / TG / TP / gamma-GTP: tissue Plasma
[1] = 150 mg/kg, 3 h, dose level Middle
[2] = 150 mg/kg, 6 h, dose level Middle
[3] = 150 mg/kg, 9 h, dose level Middle
[4] = 150 mg/kg, 24 h, dose level Middle
[5] = 300 mg/kg, 3 h, dose level High
[6] = 300 mg/kg, 6 h, dose level High
[7] = 300 mg/kg, 9 h, dose level High
[8] = 300 mg/kg, 24 h, dose level High

## CCC1(c2ccccc2)C(=O)NC(=O)NC1=O [PHENOBARBITAL]
[1]
  TERMINAL_BW: 224.5 g
  APTT: 19.1 s
  Bas: 0.4%
  Eos: 1%
  Fbg: 217.2 mg/dL
  Hb: 13.8 g/dL
  Ht: 38.5%
  Lym: 82.4%
  MCH: 21.6 pg
  MCHC: 35.8%
  MCV: 60.4 fL
  Mono: 3%
  Neu: 12.6%
  PT: 12 s
  Plat: 129.5 x10_4/uL
  RBC: 637.8 x10_4/ul
  Ret: 7.8%
  WBC: 81.1 x10_2/uL
  KIDNEY_L: 1 g
  KIDNEY_R: 1 g
  KIDNEY_TOTAL: 2 g
  LIVER: 10.3 g
  A/G: 1.7
  ALP: 765.6 IU/L
  ALT: 39 IU/L
  AST: 66.4 IU/L
  BUN: 8.8 mg/dL
  CRE: 0.3 mg/dL
  Ca: 10.7 mg/dL
  Cl: 101.2 meq/L
  DBIL: 0.064 mg/dL
  GLC: 184.4 mg/dL
  IP: 9.8 mg/dL
  K: 4.4 meq/L
  LDH: 149.4 IU/L
  Na: 139.8 meq/L
  PL: 145.4 mg/dL
  RALB: 3.3 g/dL
  TBIL: 0.1 mg/dL
  TC: 71.4 mg/dL
  TG: 73.2 mg/dL
  TP: 5.3 g/dL
  gamma-GTP: 1 IU/L
[2]
  TERMINAL_BW: 221.3 g
  APTT: 20.4 s
  Bas: 0.2%
  Eos: 0.6%
  Fbg: 226 mg/dL
  Hb: 13.8 g/dL
  Ht: 38.1%
  Lym: 79%
  MCH: 21.5 pg
  MCHC: 36.3%
  MCV: 59.3 fL
  Mono: 3%
  Neu: 15.4%
  PT: 12 s
  Plat: 125.8 x10_4/uL
  RBC: 643 x10_4/ul
  Ret: 7.6%
  WBC: 90 x10_2/uL
  KIDNEY_L: 1 g
  KIDNEY_R: 1 g
  KIDNEY_TOTAL: 2 g
  LIVER: 9.3 g
  A/G: 1.5
  ALP: 756.8 IU/L
  ALT: 28.4 IU/L
  AST: 60.8 IU/L
  BUN: 8.2 mg/dL
  CRE: 0.4 mg/dL
  Ca: 10.7 mg/dL
  Cl: 100.6 meq/L
  DBIL: 0.07 mg/dL
  GLC: 178.2 mg/dL
  IP: 9.7 mg/dL
  K: 4.2 meq/L
  LDH: 178.4 IU/L
  Na: 139.6 meq/L
  PL: 137 mg/dL
  RALB: 3.2 g/dL
  TBIL: 0.1 mg/dL
  TC: 69.2 mg/dL
  TG: 67.6 mg/dL
  TP: 5.3 g/dL
  gamma-GTP: 1.2 IU/L
[3]
  TERMINAL_BW: 219.3 g
  APTT: 20.6 s
  Bas: 0%
  Eos: 0.4%
  Fbg: 215 mg/dL
  Hb: 14.1 g/dL
  Ht: 38.6%
  Lym: 76.6%
  MCH: 22.1 pg
  MCHC: 36.5%
  MCV: 60.5 fL
  Mono: 3%
  Neu: 19%
  PT: 12.2 s
  Plat: 121.6 x10_4/uL
  RBC: 637.8 x10_4/ul
  Ret: 7.7%
  WBC: 96.4 x10_2/uL
  KIDNEY_L: 1 g
  KIDNEY_R: 1 g
  KIDNEY_TOTAL: 2 g
  LIVER: 9.3 g
  A/G: 1.7
  ALP: 593.2 IU/L
  ALT: 26.6 IU/L
  AST: 58.6 IU/L
  BUN: 6.8 mg/dL
  CRE: 0.3 mg/dL
  Ca: 10.4 mg/dL
  Cl: 100 meq/L
  DBIL: 0.066 mg/dL
  GLC: 182 mg/dL
  IP: 9.5 mg/dL
  K: 4.1 meq/L
  LDH: 136 IU/L
  Na: 139.8 meq/L
  PL: 138.8 mg/dL
  RALB: 3.3 g/dL
  TBIL: 0.1 mg/dL
  TC: 70 mg/dL
  TG: 39 mg/dL
  TP: 5.2 g/dL
  gamma-GTP: 1 IU/L
[4]
  TERMINAL_BW: 234 g
  APTT: 19.2 s
  Bas: 0.8%
  Eos: 1%
  Fbg: 214.2 mg/dL
  Hb: 13.9 g/dL
  Ht: 38.4%
  Lym: 79.6%
  MCH: 21.8 pg
  MCHC: 36.2%
  MCV: 60.3 fL
  Mono: 2.2%
  Neu: 16%
  PT: 11.7 s
  Plat: 125.7 x10_4/uL
  RBC: 637 x10_4/ul
  Ret: 6.5%
  WBC: 106.3 x10_2/uL
  KIDNEY_L: 1.1 g
  KIDNEY_R: 1 g
  KIDNEY_TOTAL: 2.1 g
  LIVER: 11.5 g
  A/G: 1.6
  ALP: 882.2 IU/L
  ALT: 33.8 IU/L
  AST: 75.6 IU/L
  BUN: 16 mg/dL
  CRE: 0.4 mg/dL
  Ca: 10.8 mg/dL
  Cl: 102 meq/L
  DBIL: 0.058 mg/dL
  GLC: 180.6 mg/dL
  IP: 7.6 mg/dL
  K: 4.2 meq/L
  LDH: 264.4 IU/L
  Na: 142.4 meq/L
  PL: 142.2 mg/dL
  RALB: 3.5 g/dL
  TBIL: 0.1 mg/dL
  TC: 72 mg/dL
  TG: 113.2 mg/dL
  TP: 5.7 g/dL
  gamma-GTP: 1.2 IU/L
[5]
  TERMINAL_BW: 225.3 g
  APTT: 22 s
  Bas: 0.2%
  Eos: 1%
  Fbg: 202.2 mg/dL
  Hb: 13.6 g/dL
  Ht: 37.8%
  Lym: 78.6%
  MCH: 21.9 pg
  MCHC: 36%
  MCV: 61.1 fL
  Mono: 2.8%
  Neu: 16.6%
  PT: 12.3 s
  Plat: 122.8 x10_4/uL
  RBC: 619.4 x10_4/ul
  Ret: 7.8%
  WBC: 75.1 x10_2/uL
  KIDNEY_L: 1 g
  KIDNEY_R: 1 g
  KIDNEY_TOTAL: 2.1 g
  LIVER: 10 g
  A/G: 1.6
  ALP: 833 IU/L
  ALT: 40.2 IU/L
  AST: 73 IU/L
  BUN: 8 mg/dL
  CRE: 0.3 mg/dL
  Ca: 10.5 mg/dL
  Cl: 100.6 meq/L
  DBIL: 0.064 mg/dL
  GLC: 183.2 mg/dL
  IP: 10.3 mg/dL
  K: 4.1 meq/L
  LDH: 142 IU/L
  Na: 140.6 meq/L
  PL: 152 mg/dL
  RALB: 3.2 g/dL
  TBIL: 0.1 mg/dL
  TC: 77 mg/dL
  TG: 57.2 mg/dL
  TP: 5.1 g/dL
  gamma-GTP: 0.8 IU/L
[6]
  TERMINAL_BW: 221.9 g
  APTT: 20.5 s
  Bas: 0%
  Eos: 1%
  Fbg: 219 mg/dL
  Hb: 14.2 g/dL
  Ht: 39.1%
  Lym: 76.8%
  MCH: 21.8 pg
  MCHC: 36.3%
  MCV: 60.2 fL
  Mono: 3.4%
  Neu: 17.6%
  PT: 12 s
  Plat: 120.7 x10_4/uL
  RBC: 649.4 x10_4/ul
  Ret: 7.7%
  WBC: 62.8 x10_2/uL
  KIDNEY_L: 1 g
  KIDNEY_R: 1 g
  KIDNEY_TOTAL: 2 g
  LIVER: 9.4 g
  A/G: 1.6
  ALP: 672.6 IU/L
  ALT: 29.2 IU/L
  AST: 58.4 IU/L
  BUN: 8.6 mg/dL
  CRE: 0.3 mg/dL
  Ca: 10.5 mg/dL
  Cl: 100.4 meq/L
  DBIL: 0.07 mg/dL
  GLC: 176 mg/dL
  IP: 9.5 mg/dL
  K: 4.2 meq/L
  LDH: 162.2 IU/L
  Na: 139.2 meq/L
  PL: 142.4 mg/dL
  RALB: 3.2 g/dL
  TBIL: 0.1 mg/dL
  TC: 74.4 mg/dL
  TG: 44.2 mg/dL
  TP: 5.2 g/dL
  gamma-GTP: 1.2 IU/L
[7]
  TERMINAL_BW: 219.7 g
  APTT: 19.3 s
  Bas: 0%
  Eos: 0.8%
  Fbg: 219.4 mg/dL
  Hb: 13.8 g/dL
  Ht: 38.3%
  Lym: 71.8%
  MCH: 22 pg
  MCHC: 36%
  MCV: 60.9 fL
  Mono: 3.6%
  Neu: 22%
  PT: 12.4 s
  Plat: 125.2 x10_4/uL
  RBC: 630.2 x10_4/ul
  Ret: 7.7%
  WBC: 73.7 x10_2/uL
  KIDNEY_L: 1 g
  KIDNEY_R: 1 g
  KIDNEY_TOTAL: 1.9 g
  LIVER: 8.6 g
  A/G: 1.5
  ALP: 558.2 IU/L
  ALT: 35.8 IU/L
  AST: 78 IU/L
  BUN: 9 mg/dL
  CRE: 0.3 mg/dL
  Ca: 10.3 mg/dL
  Cl: 99.6 meq/L
  DBIL: 0.064 mg/dL
  GLC: 186.2 mg/dL
  IP: 9.7 mg/dL
  K: 4.2 meq/L
  LDH: 170.4 IU/L
  Na: 139.4 meq/L
  PL: 137.8 mg/dL
  RALB: 3 g/dL
  TBIL: 0.1 mg/dL
  TC: 74.8 mg/dL
  TG: 29.8 mg/dL
  TP: 5 g/dL
  gamma-GTP: 1 IU/L
[8]
  TERMINAL_BW: 201.5 g
  APTT: 24.3 s
  Bas: 1%
  Eos: 1%
  Fbg: 207 mg/dL
  Hb: 16.1 g/dL
  Ht: 44.2%
  Lym: 82.3%
  MCH: 22 pg
  MCHC: 36.6%
  MCV: 60.1 fL
  Mono: 2.3%
  Neu: 13%
  PT: 12.3 s
  Plat: 145.9 x10_4/uL
  RBC: 735.3 x10_4/ul
  Ret: 6.5%
  WBC: 84.5 x10_2/uL
  KIDNEY_L: 1 g
  KIDNEY_R: 1 g
  KIDNEY_TOTAL: 2 g
  LIVER: 7.7 g
  A/G: 1.6
  ALP: 449.7 IU/L
  ALT: 21 IU/L
  AST: 53 IU/L
  BUN: 9 mg/dL
  CRE: 0.3 mg/dL
  Ca: 10.5 mg/dL
  Cl: 100 meq/L
  DBIL: 0.06 mg/dL
  GLC: 141 mg/dL
  IP: 9 mg/dL
  K: 4.6 meq/L
  LDH: 113.3 IU/L
  Na: 139.3 meq/L
  PL: 100 mg/dL
  RALB: 3.2 g/dL
  TBIL: 0.1 mg/dL
  TC: 58.7 mg/dL
  TG: 13.3 mg/dL
  TP: 5.2 g/dL
  gamma-GTP: 1 IU/L
